Results as given in article PMC9441481, “Risk assessment and molecular mechanism study of drug-drug interactions between rivaroxaban and tyrosine kinase inhibitors mediated by CYP2J2/3A4 and BCRP/P-gp” (Frontiers in Pharmacology, 2022).
“Also recorded” adds a separate entry of the source. Like-named read-outs stand apart in the source and are kept apart here. Values belong to the compound of their own block, whether it stands above or below them.

Experiments:
[1] = Rivaroxaban pharmacokinetics in rats, intravenous administration with or without imatinib; assay type: in vivo; conditions: male, Wistar, rat, plasma, 0.4 mg/kg, i.v.
Protocol: (§1) The LC-MS/MS method was used to quantitatively determine rivaroxaban for cell and animal experiments. LC-MS/MS analysis was performed using an API 3200 triple-quadrupole mass spectrometer (Applied Biosystems, Concord, Ontario, Canada) and an Agilent LC system Agilent HP1200 (Agilent Technology Inc. CA, United States). The column was a Hypersil ODS-BP column (150 mm × 2.1 mm, 5 μm; Dalian Elite Analytical Instruments Co. Ltd. China). […] The flow rate of the mobile phase was 0.4 ml/min. The mobile phase contained acetonitrile and water with 0.2% (v/v) formic acid at 65:35 (v/v) for rivaroxaban in cell experiments. The determination of rivaroxaban in the blood was achieved by gradient elution methods with a mobile phase of acetonitrile (A) and pure water with 10 mM ammonium acetate (B).
(§2) To further investigate the DDI risk between rivaroxaban and the TKIs, the pharmacokinetic parameters were measured in Wistar rats (male, 160–200 g). The experiments were reviewed and approved by the Experimental Animal Centre of Dalian Medical University. […] All rats had free access to food and water and were fed adaptively for 7 days. […] Thirty-six rats were divided into six groups randomly. […] After centrifugation, the plasma proteins were precipitated using acetonitrile, followed by vortexing and centrifugation.
(§3) All pharmacokinetic parameters in the present study were analyzed using the Drug and Statistics software (DAS 2.0, Windows). In the bidirectional experiments, the apparent permeability values (Papp), efflux ratio (ER), and net flux ratio were calculated by Eqs. […] The transport of rivaroxaban was assessed to determine apparent Michaelis–Menten constants (Km,app). […] AP is transported from the apical to the basolateral side, and BL is transported from the basolateral to the apical side. Net flux ratiomax is the maximal effect, C is the concentration of rivaroxaban, and h is the Hill coefficient of the sigmoid model.

[2] = target: recombinant human CYP3A4 (Homo sapiens, UniProt P08684); design: method as in Zhao et al., 2022; conditions: ref Zhao et al., 2022, cited from earlier work
recombinant human CYP3A4, sequence (P08684 whole entry): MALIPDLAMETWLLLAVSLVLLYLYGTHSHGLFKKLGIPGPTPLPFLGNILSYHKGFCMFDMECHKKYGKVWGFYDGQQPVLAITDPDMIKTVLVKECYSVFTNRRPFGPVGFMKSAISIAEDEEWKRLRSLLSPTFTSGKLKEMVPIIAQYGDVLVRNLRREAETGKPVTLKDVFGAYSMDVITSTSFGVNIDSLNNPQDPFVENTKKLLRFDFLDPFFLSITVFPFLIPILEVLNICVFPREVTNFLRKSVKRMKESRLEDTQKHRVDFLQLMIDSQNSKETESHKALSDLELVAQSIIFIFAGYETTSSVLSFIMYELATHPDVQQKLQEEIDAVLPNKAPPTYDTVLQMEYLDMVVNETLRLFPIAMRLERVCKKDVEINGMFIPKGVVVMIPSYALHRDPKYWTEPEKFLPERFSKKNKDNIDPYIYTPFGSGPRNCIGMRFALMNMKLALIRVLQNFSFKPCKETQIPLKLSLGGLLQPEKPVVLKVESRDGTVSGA

[3] = system: pooled human liver microsomes (HLM); design: method as in Zhao et al., 2022; conditions: ref Zhao et al., 2022; read-out: Km of rivaroxaban metabolism, HLM; cited from earlier work
[4] = target: T1, BCRP (Homo sapiens, UniProt Q9UNQ0); assay: Bidirectional transport of rivaroxaban, ABCG2-MDCK vs mock-MDCK
T1 sequence (Q9UNQ0 1-655): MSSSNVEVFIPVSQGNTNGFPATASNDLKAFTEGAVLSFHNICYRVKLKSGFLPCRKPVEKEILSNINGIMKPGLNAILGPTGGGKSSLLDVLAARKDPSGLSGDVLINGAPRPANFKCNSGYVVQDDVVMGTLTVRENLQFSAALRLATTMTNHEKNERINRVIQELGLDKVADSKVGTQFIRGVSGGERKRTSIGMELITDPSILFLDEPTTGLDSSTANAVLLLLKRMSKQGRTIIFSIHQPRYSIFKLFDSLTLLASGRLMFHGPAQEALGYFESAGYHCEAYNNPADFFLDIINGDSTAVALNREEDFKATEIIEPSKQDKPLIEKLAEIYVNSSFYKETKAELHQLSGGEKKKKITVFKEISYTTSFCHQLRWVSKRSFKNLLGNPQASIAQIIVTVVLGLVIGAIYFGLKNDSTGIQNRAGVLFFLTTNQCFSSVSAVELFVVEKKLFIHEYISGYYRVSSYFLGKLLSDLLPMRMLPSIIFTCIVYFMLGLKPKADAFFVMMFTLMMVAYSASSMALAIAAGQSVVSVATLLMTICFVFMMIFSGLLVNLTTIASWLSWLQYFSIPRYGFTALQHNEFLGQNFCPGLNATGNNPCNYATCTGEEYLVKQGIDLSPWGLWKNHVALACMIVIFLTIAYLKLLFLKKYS
Protocol: as §1
(§4) Mock-MDCK, MDR1-MDCK, and ABCG2-MDCK cells were seeded in 24-well transwell inserts (0.33 cm^2, 0.4 μm) at a density of 2.5 × 10^5 cells/ml, and cells were allowed to culture for 3–5 days to form cell monolayers. The Millicell-ERS system was used to measure the TEER (Trans Epithelial Electric Resistance) values of the monolayers. […] Briefly, the monolayer was washed gently using 37°C HBSS (pH 7.4) and preincubated with HBSS for 10 min at 37°C. Then, various concentrations of TKIs were added to the HBSS on either the basolateral (total volume of 800 μl) or apical (total volume of 200 μl) side of the monolayers, and the cells in the transwell inserts were allowed to further incubate at 37°C for 2 h. At last, a 100-μl solution was taken from the other side for quantitative analysis by LC-MS/MS.
as §3

[5] = design: method as in Mueck et al., 2013; conditions: ref Mueck et al., 2013; cited from earlier work
[6] = target: T2, recombinant human CYP2J2 (Homo sapiens, UniProt P51589); design: method as in Zhao et al., 2022; conditions: ref Zhao et al., 2022, cited from earlier work
T2 sequence (P51589 1-502): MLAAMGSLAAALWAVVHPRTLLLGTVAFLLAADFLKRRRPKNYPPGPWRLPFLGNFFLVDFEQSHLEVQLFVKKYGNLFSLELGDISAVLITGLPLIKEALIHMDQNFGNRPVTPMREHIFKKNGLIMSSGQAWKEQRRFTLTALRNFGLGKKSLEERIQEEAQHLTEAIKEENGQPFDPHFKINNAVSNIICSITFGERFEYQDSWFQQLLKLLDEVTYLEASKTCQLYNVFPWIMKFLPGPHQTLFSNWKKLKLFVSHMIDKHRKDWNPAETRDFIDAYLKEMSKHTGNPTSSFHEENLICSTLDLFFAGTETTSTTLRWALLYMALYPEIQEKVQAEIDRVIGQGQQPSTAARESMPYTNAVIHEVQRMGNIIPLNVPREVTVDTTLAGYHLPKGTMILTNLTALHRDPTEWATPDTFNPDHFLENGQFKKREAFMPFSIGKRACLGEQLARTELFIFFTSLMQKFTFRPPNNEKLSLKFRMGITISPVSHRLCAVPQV

[7] = target: T3, P-gp (Homo sapiens, UniProt P08183); assay: Bidirectional transport of rivaroxaban, MDR1-MDCK vs mock-MDCK
T3 sequence (P08183 whole entry): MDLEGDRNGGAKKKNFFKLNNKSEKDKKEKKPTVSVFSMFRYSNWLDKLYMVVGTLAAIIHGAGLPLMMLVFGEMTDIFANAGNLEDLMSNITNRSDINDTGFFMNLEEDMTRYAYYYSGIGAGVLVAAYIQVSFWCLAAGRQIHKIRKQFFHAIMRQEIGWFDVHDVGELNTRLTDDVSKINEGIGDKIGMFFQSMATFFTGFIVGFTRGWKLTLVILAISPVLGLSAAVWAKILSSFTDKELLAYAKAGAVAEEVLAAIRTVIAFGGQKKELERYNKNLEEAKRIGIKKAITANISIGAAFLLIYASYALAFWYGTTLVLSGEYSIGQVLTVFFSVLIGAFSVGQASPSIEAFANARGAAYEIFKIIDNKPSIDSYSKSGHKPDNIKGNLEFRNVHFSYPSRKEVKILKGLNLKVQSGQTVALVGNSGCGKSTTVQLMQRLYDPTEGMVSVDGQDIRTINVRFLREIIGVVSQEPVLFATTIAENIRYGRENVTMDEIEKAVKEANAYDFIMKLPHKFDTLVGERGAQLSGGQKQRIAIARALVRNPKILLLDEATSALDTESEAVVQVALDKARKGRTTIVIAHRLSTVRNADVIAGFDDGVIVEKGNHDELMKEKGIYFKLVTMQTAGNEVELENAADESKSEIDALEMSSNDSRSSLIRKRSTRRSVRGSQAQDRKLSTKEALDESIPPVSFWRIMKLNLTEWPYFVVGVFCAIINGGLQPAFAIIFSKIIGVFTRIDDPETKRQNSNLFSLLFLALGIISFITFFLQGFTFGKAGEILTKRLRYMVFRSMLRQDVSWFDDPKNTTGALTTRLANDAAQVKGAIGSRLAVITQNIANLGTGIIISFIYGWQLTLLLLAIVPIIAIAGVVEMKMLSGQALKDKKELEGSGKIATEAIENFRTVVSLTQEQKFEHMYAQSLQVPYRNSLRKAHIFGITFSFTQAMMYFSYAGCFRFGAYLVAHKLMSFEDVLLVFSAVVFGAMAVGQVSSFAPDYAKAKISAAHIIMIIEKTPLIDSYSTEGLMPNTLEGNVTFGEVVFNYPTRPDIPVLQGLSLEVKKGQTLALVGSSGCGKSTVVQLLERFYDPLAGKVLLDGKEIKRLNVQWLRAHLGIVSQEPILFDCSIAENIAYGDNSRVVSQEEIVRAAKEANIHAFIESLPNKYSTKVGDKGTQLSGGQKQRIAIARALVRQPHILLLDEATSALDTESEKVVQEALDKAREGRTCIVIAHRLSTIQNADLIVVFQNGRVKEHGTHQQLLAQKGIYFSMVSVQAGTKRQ
Protocol: as §1, §4, §3

[8] = Rivaroxaban pharmacokinetics in rats, oral administration with or without TKIs; assay type: in vivo, Wistar rats
Protocol: as §1, §2, §3

[9] = design: method as in Chong et al., 2020; conditions: rats; ref Chong et al., 2020; cited from earlier work
[10] = target: T3, P-gp; conditions: MDR1-MDCK cells, TKI 5 μM
Protocol: Mock-MDCK and MDR1-MDCK cells were seeded in six-well plates and grown to 80% confluency.

[11] = patients with solid tumors; ref Gschwind et al. (2005), Sparano et al. (2009), Di Gion et al. (2011), Scheffler et al. (2011); read-out: I (Cmax of patients with solid tumors); cited from earlier work
[12] = system: CYP2J2 and CYP3A4; conditions: predicted increase in rivaroxaban exposure from CYP2J2 and CYP3A4 inhibition
Text: Kinetic constants were included in the mechanistic static model to explore reversible inhibition and the TDI. […] In the present study, this model was designed to explore the contributions of enzyme inhibition in the prediction of DDI risk. The area under the curve ratio (AUC ratio/AUCR) in the presence of a pharmacokinetic DDI was used as the index, as described by Eq. 2.

[13] = system: rivaroxaban metabolism in HLM; assay: Inhibition of rivaroxaban metabolism in HLM incubation; assay type: in vitro ADME; conditions: human, pooled human liver microsomes, probe rivaroxaban (concentration chosen from Km, 22.81 μM for HLM), HLM 0.3 mg/mL, main metabolite formation, five independent experiments, read-out: IC50 of TKI inhibition of rivaroxaban metabolism, HLM
Protocol: The formation of the main metabolite of rivaroxaban in the CYP inhibition assays was quantitatively determined using HPLC. The mobile phase consisted of 60% methanol (A pump) and 40% pure water with 0.2% formic acid (B pump) with isocratic elution.
The inhibitory effect of the TKIs on the metabolism of rivaroxaban in recombined P450 isoforms and HLM incubations was compared by quantifiably detecting the production of the major metabolite using HPLC. The concentrations of HLM, CYP2J2, and CYP3A4 were 0.3, 0.4, and 0.6 mg mL^−1, respectively. […] Briefly, after 5-min preincubation of potential inhibitors with isoforms, NADPH was added to initiate the reaction. The reaction mixture was incubated at 37°C for 60 min, and ice acetonitrile was used for terminating the reaction. The ratio of major metabolite production of rivaroxaban in the TKI incubation group to that obtained in the control group represents the inhibitory activity.
To explore the inhibitory effects of the three TKIs on rivaroxaban metabolism, three concentrations of TKIs (1, 10, and 100 μM) were used to perform the in vitro enzyme incubations. The ratio of the rivaroxaban main metabolite formation in the incubation with the TKIs to that without inhibitors represented the inhibitory activity.
The IC50 values were obtained by nonlinear fitting of the TKI concentration and the remaining enzyme activity.

[14] = design: method as in Zheng et al., 2019; conditions: ref Zheng et al., 2019; cited from earlier work
[15] = male, Wistar, rat, plasma, po, rivaroxaban 2.1 mg/kg, n = 5

AUC(0-t) ([1]; n = 5): 4650 ± 446 ng·h/mL
Cmax ([1]; n = 5): 3940 ± 780 ng/mL
clearance ([1]; n = 5, read-out: CL of rivaroxaban (converted)): 1.38 mL/min/kg
half-life ([1]; n = 5, read-out: t1/2 of rivaroxaban (converted)): 2.44 ± 0.757 h
Net flux ratio max, BCRP ([4]; ABCG2-MDCK cells): 4.868 fold
Km at 2 h ([4]; human, pH 7.4): 3.46 µM
net flux ratio, transportation mediated by BCRP ([4]; substrate identification): more than 2 folds
Net flux ratio max, P-gp ([7]; MDR1-MDCK cells): 10.300 fold
Km at 2 h ([7]; human, MDCK, pH 7.4): 8.42 µM
net flux ratio, transportation mediated by P-gp ([7]; substrate identification): more than 2 folds
AUC(0-t) [8, 15]: 1550 ± 268 ng·h/mL
Cmax [8, 15]: 130 ± 22.7 ng/mL
Tmax [8, 15]: 4 h
SMILES: O=C(NC[C@H]1CN(c2ccc(N3CCOCC3=O)cc2)C(=O)O1)c1ccc(Cl)s1 [Rivaroxaban]
fraction of rivaroxaban metabolized by CYP3A4 ([2]; input of static model): 0.025
Km ([2]; read-out: Km of rivaroxaban metabolism, CYP3A4): 47 µM
Km [3]: 22.8 µM
dose eliminated via hydrolysis of the amide bonds [5]: approximately 14%
fraction of rivaroxaban metabolized by CYP2J2 ([6]; input of static model): 0.95
catalytic efficiency of CYP2J2 relative to CYP3A4 [6]: approximately 39 fold
Km ([6]; read-out: Km of rivaroxaban metabolism, CYP2J2): 19.4 µM

SMILES: CCCSc1nc(N[C@@H]2C[C@H]2c2ccc(F)c(F)c2)c2nnn([C@@H]3C[C@H](OCCO)[C@@H](O)[C@H]3O)c2n1 [ticagrelor]
increase of the AUC of rivaroxaban [9]: two folds

intracellular fluorescence intensity of rhodamine 123 (fluorescence imaging) [10]: slight increase
AUC increase (%) [12]: 6–11%
AUC increase (%) ([12]; listed as gefitinib): not to cause a significant change
SMILES: COc1cc2ncnc(Nc3ccc(F)c(Cl)c3)c2cc1OCCCN1CCOCC1 [Gefitinib]
Cmax [11]: 190 to 356 nM
effect on rivaroxaban exposure / pharmacokinetics in vivo ([8]; p.o.): almost did not affect; also recorded: did not show obvious changes

AUC increase (%) [12]: 2%
AUC increase (%) ([12]; listed as sunitinib): not to cause a significant change
IC50 at 60 min [13]: 84.2 ± 7.34 µM
SMILES: CCN(CC)CCNC(=O)c1c(C)[nH]c(/C=C2\C(=O)Nc3ccc(F)cc32)c1C [Sunitinib]
Cmax [11]: 63 to 69.5 nM

inhibition at 2 h, 5 µM ([4]; human, pH 7.4): > 50%
intracellular fluorescence intensity of rhodamine 123 (fluorescence imaging) [10]: significantly increased
inhibition at 2 h ([7]; human, pH 7.4): ~20%
IC50 at 60 min [13]: 1.7 ± 0.119 µM
SMILES: Cc1ccc(NC(=O)c2ccc(CN3CCN(C)CC3)cc2)cc1Nc1nccc(-c2cccnc2)n1 [Imatinib]
Cmax [11]: 4170 to 9280 nM

SMILES: CCOC(=O)[C@H](CCc1ccccc1)N[C@@H](C)C(=O)N1CCC[C@H]1C(=O)O [enalapril]
increase of the AUC value of rivaroxaban [14]: 20%
increase of the Cmax value of rivaroxaban [14]: 20%
